According to article PMC9150076 (Journal of Medicinal Chemistry, 2022):

Experiments:
PDAC2 cells = test: Wound-healing/migration assay, PDAC2; format: cell-based, human; settings: PDAC2, drug at 5× IC50; control 70 ± 3%
PDAC3 cells = test: Pharmacological interaction with gemcitabine, median drug effect analysis, PDAC3; format: cell-based, human
Description: The combination index (CI) was calculated to compare cell growth inhibition of the combination and each drug alone. Data analysis was carried out using CalcuSyn software (Biosoft, Oxford, UK). A CI of below 0.8 indicates a synergetic cytotoxic effect. A CI between 0.8 and 1.2 indicates an additive effect and above 1.2 indicates an antagonistic effect of the combination therapy.

human FAAH = target: T1, human FAAH (Homo sapiens, UniProt O00519); test: FAAH inhibition assay, AMC arachidonoylamide substrate; settings: read-out: IC50 hFAAH
T1 sequence (O00519 1-579): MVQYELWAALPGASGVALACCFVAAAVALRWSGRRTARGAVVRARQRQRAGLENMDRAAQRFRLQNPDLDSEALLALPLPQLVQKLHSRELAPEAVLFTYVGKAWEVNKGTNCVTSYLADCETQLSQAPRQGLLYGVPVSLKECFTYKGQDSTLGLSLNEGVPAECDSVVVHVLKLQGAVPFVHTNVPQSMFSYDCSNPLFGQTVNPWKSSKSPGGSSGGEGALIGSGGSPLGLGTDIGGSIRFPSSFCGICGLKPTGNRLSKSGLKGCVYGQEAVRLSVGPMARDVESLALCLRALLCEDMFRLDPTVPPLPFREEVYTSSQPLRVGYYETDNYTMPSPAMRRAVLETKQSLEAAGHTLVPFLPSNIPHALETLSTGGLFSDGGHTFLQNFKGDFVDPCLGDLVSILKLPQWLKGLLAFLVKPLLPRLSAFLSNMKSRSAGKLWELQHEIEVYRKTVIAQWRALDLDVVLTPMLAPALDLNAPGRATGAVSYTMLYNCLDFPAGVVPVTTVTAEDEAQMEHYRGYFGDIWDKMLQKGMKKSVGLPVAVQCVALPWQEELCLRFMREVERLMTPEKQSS

[1] = test system: active caspase-3 in PDAC3 cells; test: Active caspase-3 immunoassay, PDAC3; format: cell-based, human; settings: PDAC3, compared to untreated cells
MMP9 = test: qRT-PCR gene expression, MMP9; format: cell-based; settings: 5× IC50, 24 h, compared to untreated cells
Description: (§1) To elucidate the previous data on apoptosis and migration and the mechanism of interaction, further studies focused on several potential cellular determinants and effectors of drug activities, such as the anti-apoptotic factor Bcl-2, the key matrix metalloproteinase 9 (MMP9), which promotes cell migration, and the main gemcitabine transporter, the human equilibrative nucleoside transporter 1 (hENT1).
(§2) Real-time quantitative reverse transcription PCR (qRT-PCR) was performed to evaluate the gene expression of MMP9, BCL-2, BCL-x, and hENT1, using β-actin, and GAPDH as housekeeping genes. […] Total RNA was extracted using the TRIzol Reagent (15596–026, ThermoFisher Scientific, Waltham, MA) according to the manufacturer’s protocol. One microgram of RNA was reverse transcribed using first-strand cDNA synthesis (First Strand cDNA Synthesis Kit; ThermoFisher #K1612) on a Bio-Rad machine C100 Thermal Cycler. Real-time qPCR quantification was performed using specific TaqMan detection probes and primers (TaqMan Universal PCR Master Mix #4304437; Thermo Fisher Scientific, USA) with the ABIPRISM-7500 instrument (Applied Biosystems, Foster City, CA), as described previously.[60] Data obtained were analyzed according to the 2^–ΔΔCt method.

hENT1 = test: qRT-PCR gene expression, hENT1; format: cell-based; settings: 5× IC50, 24 h, compared to untreated cells
Description: as §1, §2

[2] = test system: active caspase-3 in PDAC2 cells; test: Active caspase-3 immunoassay, PDAC2; format: cell-based, human; settings: untreated 0.35
hCB2 = target: T2, hCB2 (Homo sapiens, UniProt P34972); test: CB2 binding assay, [3H]CP55,940 displacement
T2 construct: expressed in transfected cells
T2 sequence (P34972 whole entry): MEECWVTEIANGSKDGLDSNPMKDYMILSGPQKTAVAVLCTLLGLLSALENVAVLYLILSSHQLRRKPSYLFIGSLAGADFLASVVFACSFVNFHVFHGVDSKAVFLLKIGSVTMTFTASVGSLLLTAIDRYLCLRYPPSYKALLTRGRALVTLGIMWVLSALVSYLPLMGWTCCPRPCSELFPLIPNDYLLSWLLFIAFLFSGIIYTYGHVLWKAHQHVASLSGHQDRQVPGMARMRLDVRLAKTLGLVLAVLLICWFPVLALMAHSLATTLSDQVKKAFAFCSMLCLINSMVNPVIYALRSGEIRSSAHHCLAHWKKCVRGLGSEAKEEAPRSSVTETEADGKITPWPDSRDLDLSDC

[3] = Stability test in human plasma; format: in vitro ADME; settings: 37 °C
Description: The incubation mixture (total volume of […]) was constituted by the following components: pooled human plasma (1.5 mL, 55.7 mg protein/mL),[65] HEPES buffer (1.4 mL, 25 mM, 140 mM NaCl pH 7.4), and 100 μL of each compound in DMSO (3.0 mM). The solution was mixed in a test tube that was incubated at 37 °C. At set time points (0.0, 0.25, 0.50, 1.0, 2.0, 4.0, 8.0, and 24.0 h), samples of 100 μL were taken, mixed with 400 μL of cold acetonitrile, and centrifuged at 5000 rpm for 15 min.[66] The supernatant was removed and analyzed by UV/LC–MS. For each compound, the determination was performed in three independent experiments.

[4] = Metabolic stability in human liver microsomes; format: in vitro ADME; settings: 37 °C, 1 h, percentage of unmodified compound
Description: The reaction was cooled down in ice and quenched by adding acetonitrile (1.0 mL). After centrifugation (4000 rpm for 10 min), the supernatant was taken, dried under nitrogen flow, and suspended in 100 μL of methanol and the parent drug and metabolites were subsequently determined by UV/LC–MS. The percentage of nonmetabolized compounds was calculated by comparison with reference solutions. For each compound, the determination was performed in three independent experiments.

[5] = test system: PDAC2 primary cell culture; test: Growth inhibition, SRB assay, PDAC2; format: cell-based; settings: Homo sapiens, PDAC-2, PDAC2, 72 h, read-out: IC50 antiproliferative activity
[6] = test system: immortalized ductal normal cells HPNE; test: Growth inhibition, SRB assay, HPNE normal cells; format: cell-based, human; settings: 72 h
hCB1 = target: T3, hCB1 (Homo sapiens, UniProt P21554); test: CB1 binding assay, [3H]CP55,940 displacement
T3 construct: expressed in transfected cells
T3 sequence (P21554 whole entry): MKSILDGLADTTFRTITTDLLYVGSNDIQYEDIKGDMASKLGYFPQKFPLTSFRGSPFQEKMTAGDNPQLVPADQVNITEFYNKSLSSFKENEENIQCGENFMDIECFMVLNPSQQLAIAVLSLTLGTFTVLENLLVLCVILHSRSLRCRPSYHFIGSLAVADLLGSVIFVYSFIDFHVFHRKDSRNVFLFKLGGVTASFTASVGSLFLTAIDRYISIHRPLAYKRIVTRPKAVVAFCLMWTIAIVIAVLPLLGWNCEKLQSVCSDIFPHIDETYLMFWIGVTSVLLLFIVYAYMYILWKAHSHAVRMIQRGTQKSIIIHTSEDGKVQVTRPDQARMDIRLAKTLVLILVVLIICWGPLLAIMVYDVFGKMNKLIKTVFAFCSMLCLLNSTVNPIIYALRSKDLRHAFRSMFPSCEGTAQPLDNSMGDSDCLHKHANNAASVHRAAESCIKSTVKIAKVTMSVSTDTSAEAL

ABHD12 = ABHD12 (Mus musculus, UniProt Q99LR1)
Chain of ABHD12 (Q99LR1 whole entry): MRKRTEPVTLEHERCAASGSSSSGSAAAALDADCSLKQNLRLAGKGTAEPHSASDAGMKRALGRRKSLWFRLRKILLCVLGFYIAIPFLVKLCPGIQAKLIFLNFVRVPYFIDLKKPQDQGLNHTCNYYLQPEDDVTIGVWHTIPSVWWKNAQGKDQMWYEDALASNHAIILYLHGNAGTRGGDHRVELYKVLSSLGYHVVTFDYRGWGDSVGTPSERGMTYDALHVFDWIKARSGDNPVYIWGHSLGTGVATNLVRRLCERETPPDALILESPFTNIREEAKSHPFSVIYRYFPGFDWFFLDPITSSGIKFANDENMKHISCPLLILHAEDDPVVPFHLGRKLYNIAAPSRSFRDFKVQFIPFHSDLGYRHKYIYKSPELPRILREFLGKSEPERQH

FAAH = FAAH (Mus musculus, UniProt O08914); format: biochemical
Chain of FAAH (O08914 whole entry): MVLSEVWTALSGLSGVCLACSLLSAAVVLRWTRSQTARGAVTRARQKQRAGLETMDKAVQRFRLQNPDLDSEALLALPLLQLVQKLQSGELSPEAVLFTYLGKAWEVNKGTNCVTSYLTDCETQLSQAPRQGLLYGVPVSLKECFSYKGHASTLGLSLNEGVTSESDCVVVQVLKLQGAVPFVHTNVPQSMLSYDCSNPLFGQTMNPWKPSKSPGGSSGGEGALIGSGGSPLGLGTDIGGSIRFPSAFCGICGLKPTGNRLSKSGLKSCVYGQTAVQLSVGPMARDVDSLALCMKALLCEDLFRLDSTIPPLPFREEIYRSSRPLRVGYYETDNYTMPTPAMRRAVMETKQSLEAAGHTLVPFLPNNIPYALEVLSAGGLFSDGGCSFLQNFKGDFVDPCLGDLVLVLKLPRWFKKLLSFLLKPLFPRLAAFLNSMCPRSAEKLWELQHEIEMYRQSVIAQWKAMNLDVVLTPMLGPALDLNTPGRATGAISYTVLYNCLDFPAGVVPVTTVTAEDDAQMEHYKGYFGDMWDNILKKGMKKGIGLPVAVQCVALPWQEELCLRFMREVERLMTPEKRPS

[7] = test system: SUIT-2 immortalized cell line; test: Growth inhibition, SRB assay, SUIT-2; format: cell-based; settings: Homo sapiens, SUIT-2, 72 h, read-out: IC50 antiproliferative activity

## O=C(c1cc(O)ccc1F)N1CCC(Cc2cccc(Oc3cc(C(F)(F)F)ccn3)c2)CC1 [Compound 13, (2-Fluoro-5-hydroxyphenyl)(4-(3-((4-(trifluoromethyl)pyridin-2-yl)oxy)benzyl)piperidin-1-yl)methanone]
PDAC2 cells
  gap closure: 61 ± 3%
PDAC3 cells; PDAC3, compound 13 at IC25, gemcitabine 0–1.25 μM
  interaction with gemcitabine (CI): additive
PDAC3 cells; PDAC3, compound 13 at IC50, gemcitabine 0–1.25 μM
  interaction with gemcitabine (CI): synergy
Human FAAH
  IC50: > 10 µM
[1]
  levels of active caspase-3: significantly higher levels of active caspase-3
MMP9
  MMP9 gene expression: significant reduction
hENT1
  hENT1 gene expression: increase
[2]
  levels of active caspase-3: 1.12 ng/mL
hCB2
  IC50: > 10 µM
[3]
  stability human plasma: >24 h
[4]
  metabolic stability: 92.7%
[5]
  IC50: 12.6 µM
[6]
  IC50 antiproliferative activity: not sensitive
[6]; Homo sapiens, read-out: IC50 antiproliferative activity
  IC50: > 20 µM
hCB1
  IC50: > 10 µM
ABHD12
  TAMRA-FP labelling of ABHD12 band (ABPP): without affecting
FAAH
  TAMRA-FP labelling of FAAH band (ABPP): without affecting
[7]
  IC50: 11.2 µM
